Laboratory results: the NIST ThermoML archive (doi:10.1016/j.fluid.2005.08.021)
Numbers after ± are expanded uncertainties.

Conditions: Crystal; visual observation

Structure (SMILES)	Normal melting temperature [°C]
CC(C)(C)O [2-methylpropan-2-ol]	25.6 ± 0.4
Oc1cccc(Cl)c1 [3-chlorophenol]	32.4 ± 0.4
Oc1ccc(Cl)cc1 [4-chlorophenol]	42.5 ± 0.4
